Measurements from PubChem BioAssay AID2060505 (Molecular Pharmacology Branch, DTP, NCI, 2025).

Test system: 633275-114-R-J1-PDC complex spheroids, viability
Assay: Anticancer human tumor 633275-114-R-J1-PDC patient-derived endometrial adenocarcinoma cell line growth inhibition [GQUAD]
Conditions: for IC50: curve of first compound; for viability, T/C: stronger effect = lower value; active means viability on the fitted dose curve at most 10% of control; inactive means the rest
In short: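 Viability of tumor cells grown as complex spheroids with endothelial and stromal cells, exposed to drug combinations. Top concentration at or near clinical Cmax (else 10 microM), diluted in half-log increments.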

[1] = second compound 0.0316 µM, first compound 0.0316 µM
[2] = second compound 0.0316 µM, first compound 0.1 µM
[3] = second compound 0.0316 µM, first compound 0.316 µM
[4] = second compound 0.0316 µM, first compound 1 µM
[5] = second compound 0.0316 µM, first compound 3.16 µM
[6] = second compound 0.0316 µM, first compound 10 µM
[7] = second compound 0.1 µM, first compound 0.0316 µM
[8] = second compound 0.1 µM, first compound 0.1 µM
[9] = second compound 0.1 µM, first compound 0.316 µM
[10] = second compound 0.1 µM, first compound 1 µM
[11] = second compound 0.1 µM, first compound 3.16 µM
[12] = second compound 0.1 µM, first compound 10 µM
[13] = second compound 0.316 µM, first compound 0.0316 µM
[14] = second compound 0.316 µM, first compound 0.1 µM
[15] = second compound 0.316 µM, first compound 0.316 µM
[16] = second compound 0.316 µM, first compound 1 µM
[17] = second compound 0.316 µM, first compound 3.16 µM
[18] = second compound 0.316 µM, first compound 10 µM
[19] = second compound 1 µM, first compound 0.0316 µM
[20] = second compound 1 µM, first compound 0.1 µM
[21] = second compound 1 µM, first compound 0.316 µM
[22] = second compound 1 µM, first compound 1 µM
[23] = second compound 1 µM, first compound 3.16 µM
[24] = second compound 1 µM, first compound 10 µM
[25] = second compound 3.16 µM, first compound 0.0316 µM
[26] = second compound 3.16 µM, first compound 0.1 µM
[27] = second compound 3.16 µM, first compound 0.316 µM
[28] = second compound 3.16 µM, first compound 1 µM
[29] = second compound 3.16 µM, first compound 3.16 µM
[30] = second compound 3.16 µM, first compound 10 µM
[31] = second compound 10 µM, first compound 0.0316 µM
[32] = second compound 10 µM, first compound 0.1 µM
[33] = second compound 10 µM, first compound 0.316 µM
[34] = second compound 10 µM, first compound 1 µM
[35] = second compound 10 µM, first compound 3.16 µM
[36] = second compound 10 µM, first compound 10 µM
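Further: spheroids exposed to the agents for seven days.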
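Wherever viability, T/C is given: percent of DMSO vehicle control viability which is 100%.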

COc1ncnc(C2CC2)c1-c1ncc2cnn(Cc3ccc(-c4nc(C(F)(F)F)cn4C(C)C)cc3)c2n1 + Cc1cnc(CNC(=O)c2c(=O)c3ccc(N4CCCN(C)CC4)nc3n3c2sc2ccccc23)cn1
inactive: viability, T/C [1] 53.1% | viability, T/C [2] 54.6% | viability, T/C [3] 59.3% | viability, T/C [4] 56% | viability, T/C [5] 56.5% | viability, T/C [6] 58.2% | viability, T/C [7] 45.3% | viability, T/C [8] 45.5% | viability, T/C [9] 45.9% | viability, T/C [10] 48.5% | viability, T/C [11] 49% | viability, T/C [12] 50% | viability, T/C [13] 42.7% | viability, T/C [14] 43.9% | viability, T/C [15] 42.1% | viability, T/C [16] 38.8% | viability, T/C [17] 48.7% | viability, T/C [18] 42.5% | viability, T/C [19] 39.9% | viability, T/C [20] 39.7% | viability, T/C [21] 37.1% | viability, T/C [22] 36.9% | viability, T/C [23] 40.5% | viability, T/C [24] 38.7% | viability, T/C [25] 32% | viability, T/C [26] 32.1% | viability, T/C [27] 35.5% | viability, T/C [28] 33.4% | viability, T/C [29] 36.6% | viability, T/C [30] 34.1% | viability, T/C [31] 29.2% | viability, T/C [32] 28.8% | viability, T/C [33] 30.5% | viability, T/C [34] 27.5% | viability, T/C [35] 31.9% | viability, T/C [36] 29.3%
> 10000 nM: IC50 (second compound 0.0316 µM)
< 31.6 nM: IC50 (second compound 0.1 µM) | IC50 (second compound 0.316 µM) | IC50 (second compound 1 µM) | IC50 (second compound 3.16 µM) | IC50 (second compound 10 µM)

C=CC(=O)N1CCN(c2nc(=O)n(-c3c(C)ccnc3C(C)C)c3nc(-c4c(O)cccc4F)c(F)cc23)C(C)C1 (stereo unspecified) + Cc1[nH]c2ccc(F)cc2c1-c1nc2c3cccnc3c3ncccc3c2[nH]1
inactive: viability, T/C [1] 95.3% | viability, T/C [2] 100% | viability, T/C [3] 93.9% | viability, T/C [4] 104% | viability, T/C [5] 104% | viability, T/C [6] 77.9% | viability, T/C [7] 106% | viability, T/C [8] 105% | viability, T/C [9] 102% | viability, T/C [10] 100% | viability, T/C [11] 105% | viability, T/C [12] 88.9% | viability, T/C [13] 97.3% | viability, T/C [14] 98.1% | viability, T/C [15] 103% | viability, T/C [16] 97.6% | viability, T/C [17] 105% | viability, T/C [18] 83.3% | viability, T/C [19] 91.5% | viability, T/C [20] 92.4% | viability, T/C [21] 94.7% | viability, T/C [22] 98.1% | viability, T/C [23] 90.1% | viability, T/C [24] 77.9% | viability, T/C [25] 72.5% | viability, T/C [26] 74.9% | viability, T/C [27] 75.8% | viability, T/C [28] 76.3% | viability, T/C [29] 74.2% | viability, T/C [30] 62.6% | viability, T/C [31] 67% | viability, T/C [32] 71.8% | viability, T/C [33] 68.2% | viability, T/C [34] 78.7% | viability, T/C [35] 71.6% | viability, T/C [36] 59%
> 10000 nM: IC50 (second compound 0.0316 µM) | IC50 (second compound 0.1 µM) | IC50 (second compound 0.316 µM) | IC50 (second compound 1 µM) | IC50 (second compound 3.16 µM) | IC50 (second compound 10 µM)

CCc1c2c(nc3ccc(O)cc13)-c1cc3c(c(=O)n1C2)COC(=O)[C@]3(O)CC + CN(C)c1ccc(Nc2c3ccc(NC(=O)CCN4CCCC4)cc3nc3cc(NC(=O)CCN4CCCC4)ccc23)cc1
3.31 nM: IC50 (second compound 0.316 µM)
inactive: viability, T/C (second compound 0.0316 µM, first compound 0.000999 µM) 82.3% | viability, T/C (second compound 0.0316 µM, first compound 0.00316 µM) 46.1% | viability, T/C (second compound 0.0316 µM, first compound 0.00999 µM) 34.6% | viability, T/C [1] 35.3% | viability, T/C (second compound 0.0316 µM, first compound 0.0999 µM) 26.1% | viability, T/C [3] 25.2% | viability, T/C (second compound 0.1 µM, first compound 0.000999 µM) 77.6% | viability, T/C (second compound 0.1 µM, first compound 0.00316 µM) 44.2% | viability, T/C (second compound 0.1 µM, first compound 0.00999 µM) 36.1% | viability, T/C [7] 32% | viability, T/C (second compound 0.1 µM, first compound 0.0999 µM) 30.2% | viability, T/C [9] 25.6% | viability, T/C (second compound 0.316 µM, first compound 0.000999 µM) 73% | viability, T/C (second compound 0.316 µM, first compound 0.00316 µM) 48.2% | viability, T/C (second compound 0.316 µM, first compound 0.00999 µM) 38.1% | viability, T/C [13] 35.3% | viability, T/C (second compound 0.316 µM, first compound 0.0999 µM) 29.4% | viability, T/C [15] 23.9% | viability, T/C (second compound 1 µM, first compound 0.000999 µM) 68.4% | viability, T/C (second compound 1 µM, first compound 0.00316 µM) 43.1% | viability, T/C (second compound 1 µM, first compound 0.00999 µM) 40.3% | viability, T/C [19] 29.3% | viability, T/C (second compound 1 µM, first compound 0.0999 µM) 23.9% | viability, T/C [21] 21.6% | viability, T/C (second compound 3.16 µM, first compound 0.000999 µM) 60.8% | viability, T/C (second compound 3.16 µM, first compound 0.00316 µM) 41.8% | viability, T/C (second compound 3.16 µM, first compound 0.00999 µM) 34.9% | viability, T/C [25] 28.1% | viability, T/C (second compound 3.16 µM, first compound 0.0999 µM) 23.5% | viability, T/C [27] 22.6% | viability, T/C (second compound 10 µM, first compound 0.000999 µM) 31% | viability, T/C (second compound 10 µM, first compound 0.00316 µM) 16% | viability, T/C (second compound 10 µM, first compound 0.00999 µM) 15.7% | viability, T/C [31] 13.9% | viability, T/C (second compound 10 µM, first compound 0.0999 µM) 15.6% | viability, T/C [33] 11.5%
2.01 nM: IC50 (second compound 3.16 µM)
2.92 nM: IC50 (second compound 0.0316 µM)
2.76 nM: IC50 (second compound 1 µM)
< 0.999 nM: IC50 (second compound 10 µM)
2.72 nM: IC50 (second compound 0.1 µM)
